According to paper PMC5437664, “Inhibition of O-GlcNAcase leads to elevation of O-GlcNAc tau and reduction of tauopathy and cerebrospinal fluid tau in rTg4510 mice” (Molecular Neurodegeneration, 2017):
pKd: −log10 of the molar value.

Molecular target: O-GlcNAcase (OGA) (Mus musculus, UniProt Q9EQQ9)
Experiment: biochemical

Sequence of O-GlcNAcase (OGA) (Q9EQQ9 whole entry): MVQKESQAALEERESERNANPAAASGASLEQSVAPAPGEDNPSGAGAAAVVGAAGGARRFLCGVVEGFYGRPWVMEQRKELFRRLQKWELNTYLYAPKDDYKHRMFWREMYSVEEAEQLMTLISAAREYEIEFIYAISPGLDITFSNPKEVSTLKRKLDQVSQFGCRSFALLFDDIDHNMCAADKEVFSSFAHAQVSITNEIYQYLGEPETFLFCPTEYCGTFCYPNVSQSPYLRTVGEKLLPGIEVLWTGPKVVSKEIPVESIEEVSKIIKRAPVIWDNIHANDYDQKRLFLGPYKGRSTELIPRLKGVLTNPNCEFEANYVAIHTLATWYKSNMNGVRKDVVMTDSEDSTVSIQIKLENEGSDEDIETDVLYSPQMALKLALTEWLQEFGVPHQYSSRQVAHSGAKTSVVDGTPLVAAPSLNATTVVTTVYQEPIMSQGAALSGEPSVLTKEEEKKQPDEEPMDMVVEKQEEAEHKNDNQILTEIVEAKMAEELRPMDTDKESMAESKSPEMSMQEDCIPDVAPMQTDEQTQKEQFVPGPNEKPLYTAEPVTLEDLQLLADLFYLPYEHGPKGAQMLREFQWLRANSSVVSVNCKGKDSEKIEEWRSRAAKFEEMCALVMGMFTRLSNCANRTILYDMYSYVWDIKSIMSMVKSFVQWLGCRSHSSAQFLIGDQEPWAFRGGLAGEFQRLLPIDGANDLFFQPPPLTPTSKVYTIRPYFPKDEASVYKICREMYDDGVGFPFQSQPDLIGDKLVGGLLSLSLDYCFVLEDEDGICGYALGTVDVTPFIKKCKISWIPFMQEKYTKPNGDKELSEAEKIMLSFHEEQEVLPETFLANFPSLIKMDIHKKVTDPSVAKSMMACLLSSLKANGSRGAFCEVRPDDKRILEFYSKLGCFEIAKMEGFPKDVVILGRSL

CCNC1=N[C@@H]2[C@@H](O)[C@H](O)[C@@H](CO)O[C@@H]2S1 [Thiamet G]
pKd: 8.77
